Measurements: BindingDB's records for doi:10.7270/Q2D798W4 (Burnham Center For Chemical Genomics, 2010)

Target: T1, Alkaline phosphatase, tissue-nonspecific isozyme (Homo sapiens, UniProt P05186)
T1 sequence (P05186 whole entry): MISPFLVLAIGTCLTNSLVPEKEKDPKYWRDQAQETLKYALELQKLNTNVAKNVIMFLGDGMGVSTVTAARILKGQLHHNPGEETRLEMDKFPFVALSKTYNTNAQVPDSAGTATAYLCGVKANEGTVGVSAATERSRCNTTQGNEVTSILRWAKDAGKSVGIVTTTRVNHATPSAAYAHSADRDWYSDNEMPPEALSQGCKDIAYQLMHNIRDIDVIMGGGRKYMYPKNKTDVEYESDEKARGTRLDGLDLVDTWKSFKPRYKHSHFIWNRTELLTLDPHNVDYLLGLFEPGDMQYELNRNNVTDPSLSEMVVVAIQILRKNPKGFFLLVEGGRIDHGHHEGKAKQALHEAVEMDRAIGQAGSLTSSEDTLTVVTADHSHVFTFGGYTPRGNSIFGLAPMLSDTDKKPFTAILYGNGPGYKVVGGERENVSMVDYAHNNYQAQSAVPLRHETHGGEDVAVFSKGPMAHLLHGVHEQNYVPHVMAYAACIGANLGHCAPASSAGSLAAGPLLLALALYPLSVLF
Assay: inhibition of tissue-nonspecific alkaline phosphatase – biochemical, dose response (AID 488882)

Compound	IC50 [µM]
CC(N=Nc1ccccc1[N+](=O)[O-])c1ccc([N+](=O)[O-])cc1 (stereo unspecified)	> 100
C=c1[nH]n(Cc2ccccc2)c(=O)c1=Cc1ccc(N(C)C)cc1 [(4Z)-4-[[4-(dimethylamino)phenyl]methylidene]-5-methyl-2-(phenylmethyl)-3-pyrazolone]	46.7
O=C(O)[C@H]1O[C@@H](Oc2c(-c3ccc(O)c(O)c3)oc3cc(O)cc(=O)c-3c2O)[C@H](O)[C@@H](O)[C@@H]1O [quercetin glucuronide]	> 100

These reach a lower IC50. Values come first.

IC50 [µM]	Compound
38.1	CCOC1=CC(=Cc2c(C)[nH]oc2=O)C=C(Br)C1=O [4-[(Z)-(3-bromo-5-ethoxy-4-oxo-1-cyclohexa-2,5-dienylidene)methyl]-3-methyl-2H-isoxazol-5-one]
12.8	O=C(Nn1c(O)csc1=S)C(=O)Nn1c(O)csc1=S [SMR000349781]
7.32	Cc1c(C(=O)NN=Cc2ccc(O)cc2O)[nH][nH]c1=O
